Test [1] addresses Phosphatidylinositol 4,5-bisphosphate 3-kinase catalytic subunit alpha isoform (Mus musculus) (UniProt P42337). Nature of the test: Inhibition of mouse recombinant PI3Kalpha expressed in baculovirus-infected Sf21 cells at 100 uM.
The target of test [2] is T1, Phosphatidylinositol 4,5-bisphosphate 3-kinase catalytic subunit beta isoform (Homo sapiens, UniProt P42338). Nature of the test: Inhibition of human recombinant PI3Kbeta expressed in baculovirus-infected Sf21 cells at 100 uM.
Target sequence in this assay (P42338 whole entry, looked up, canonical isoform): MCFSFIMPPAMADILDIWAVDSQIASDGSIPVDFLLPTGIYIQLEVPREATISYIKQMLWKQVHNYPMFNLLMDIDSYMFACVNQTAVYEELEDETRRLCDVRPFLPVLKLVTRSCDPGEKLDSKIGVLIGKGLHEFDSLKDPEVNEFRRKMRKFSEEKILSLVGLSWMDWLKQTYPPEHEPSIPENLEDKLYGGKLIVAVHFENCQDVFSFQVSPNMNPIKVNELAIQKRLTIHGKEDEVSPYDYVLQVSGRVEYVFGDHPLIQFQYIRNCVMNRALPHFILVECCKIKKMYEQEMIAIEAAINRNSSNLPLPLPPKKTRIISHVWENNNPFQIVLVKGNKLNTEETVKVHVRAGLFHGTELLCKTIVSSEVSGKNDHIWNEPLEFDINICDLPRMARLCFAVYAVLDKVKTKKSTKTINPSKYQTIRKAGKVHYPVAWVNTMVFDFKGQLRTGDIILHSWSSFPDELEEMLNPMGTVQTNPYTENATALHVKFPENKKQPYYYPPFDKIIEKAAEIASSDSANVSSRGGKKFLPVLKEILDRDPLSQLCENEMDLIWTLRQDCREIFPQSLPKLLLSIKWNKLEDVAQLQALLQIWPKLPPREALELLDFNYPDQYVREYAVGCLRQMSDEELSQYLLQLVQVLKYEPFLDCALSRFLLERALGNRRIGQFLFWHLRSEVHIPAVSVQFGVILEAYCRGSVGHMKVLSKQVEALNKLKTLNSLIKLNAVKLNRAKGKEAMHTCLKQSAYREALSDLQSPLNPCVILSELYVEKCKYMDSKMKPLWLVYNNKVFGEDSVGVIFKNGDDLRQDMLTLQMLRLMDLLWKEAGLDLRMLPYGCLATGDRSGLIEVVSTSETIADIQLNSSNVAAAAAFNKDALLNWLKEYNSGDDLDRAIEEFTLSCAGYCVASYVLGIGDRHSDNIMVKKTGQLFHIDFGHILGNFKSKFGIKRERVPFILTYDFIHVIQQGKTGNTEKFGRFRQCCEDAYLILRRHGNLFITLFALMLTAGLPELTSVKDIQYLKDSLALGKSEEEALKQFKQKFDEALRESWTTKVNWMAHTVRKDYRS
Test [3] addresses T2, Phosphatidylinositol 4,5-bisphosphate 3-kinase catalytic subunit delta isoform (Homo sapiens, UniProt O00329).
T2 sequence (O00329 whole entry): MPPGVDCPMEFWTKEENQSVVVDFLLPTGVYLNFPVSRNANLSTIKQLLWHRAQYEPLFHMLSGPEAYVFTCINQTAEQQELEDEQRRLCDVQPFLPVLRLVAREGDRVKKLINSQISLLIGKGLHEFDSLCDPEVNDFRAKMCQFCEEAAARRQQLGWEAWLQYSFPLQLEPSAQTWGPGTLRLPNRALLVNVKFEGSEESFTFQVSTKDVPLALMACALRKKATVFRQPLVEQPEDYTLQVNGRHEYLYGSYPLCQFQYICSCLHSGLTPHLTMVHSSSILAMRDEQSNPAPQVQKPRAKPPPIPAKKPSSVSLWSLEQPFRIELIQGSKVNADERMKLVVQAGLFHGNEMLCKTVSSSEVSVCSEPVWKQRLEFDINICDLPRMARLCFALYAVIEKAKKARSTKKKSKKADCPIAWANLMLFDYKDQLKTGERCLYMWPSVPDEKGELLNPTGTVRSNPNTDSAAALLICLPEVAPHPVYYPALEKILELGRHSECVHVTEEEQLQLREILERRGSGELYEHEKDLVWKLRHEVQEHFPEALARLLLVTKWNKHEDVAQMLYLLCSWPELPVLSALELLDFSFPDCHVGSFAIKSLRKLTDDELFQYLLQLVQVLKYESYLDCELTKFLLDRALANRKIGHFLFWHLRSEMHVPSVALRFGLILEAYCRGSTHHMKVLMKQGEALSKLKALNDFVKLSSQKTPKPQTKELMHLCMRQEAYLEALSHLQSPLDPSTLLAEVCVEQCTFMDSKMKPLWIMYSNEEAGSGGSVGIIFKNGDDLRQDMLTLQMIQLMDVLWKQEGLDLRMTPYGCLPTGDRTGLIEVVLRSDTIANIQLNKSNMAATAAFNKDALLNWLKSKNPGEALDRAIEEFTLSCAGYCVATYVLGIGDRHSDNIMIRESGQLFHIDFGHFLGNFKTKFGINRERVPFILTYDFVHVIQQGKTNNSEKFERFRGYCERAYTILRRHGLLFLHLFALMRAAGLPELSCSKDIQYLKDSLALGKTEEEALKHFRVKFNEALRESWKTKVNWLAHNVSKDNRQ
Nature of the test: Inhibition of recombinant PI3Kdelta expressed in baculovirus-infected Sf21 cells.

Test [4] deals with T1, Phosphatidylinositol 4,5-bisphosphate 3-kinase catalytic subunit beta isoform. Put plainly: Inhibition of human recombinant PI3Kbeta expressed in baculovirus-infected Sf21 cells.
Target sequence in this assay (P42338 whole entry, canonical isoform): as the sequence (P42338 whole entry, looked up, canonical isoform) above
In test [5] the target is T3, Phosphatidylinositol 4,5-bisphosphate 3-kinase catalytic subunit delta isoform (Homo sapiens) (UniProt O00329).
T3 sequence (whole entry): T2 sequence (O00329 whole entry)
Nature of the test: Inhibition of recombinant PI3Kdelta expressed in baculovirus-infected Sf21 cells at 100 uM.

Test [6] can be described thus: Inhibition of bovine recombinant PI3Kgamma expressed in baculovirus-infected Sf21 cells. Also on record: species or system Bos taurus.
Test [7] deals with Phosphatidylinositol 4,5-bisphosphate 3-kinase catalytic subunit alpha isoform (Mus musculus, UniProt P42337). Nature of the test: Inhibition of mouse recombinant PI3Kalpha expressed in baculovirus-infected Sf21 cells.
Test [8] in a line: Inhibition of bovine recombinant PI3Kgamma expressed in baculovirus-infected Sf21 cells at 100 uM. As to conditions: Bos taurus.
Test [9] in a line: Selectivity for PI3Kgamma over PI3Kalpha.
Test [10] can be described thus: Selectivity for PI3Kgamma over PI3Kbeta.
Test [11] can be described thus: Selectivity for PI3Kgamma over PI3Kdelta.

Chain of Phosphatidylinositol 4,5-bisphosphate 3-kinase catalytic subunit alpha isoform (P42337 whole entry, canonical isoform): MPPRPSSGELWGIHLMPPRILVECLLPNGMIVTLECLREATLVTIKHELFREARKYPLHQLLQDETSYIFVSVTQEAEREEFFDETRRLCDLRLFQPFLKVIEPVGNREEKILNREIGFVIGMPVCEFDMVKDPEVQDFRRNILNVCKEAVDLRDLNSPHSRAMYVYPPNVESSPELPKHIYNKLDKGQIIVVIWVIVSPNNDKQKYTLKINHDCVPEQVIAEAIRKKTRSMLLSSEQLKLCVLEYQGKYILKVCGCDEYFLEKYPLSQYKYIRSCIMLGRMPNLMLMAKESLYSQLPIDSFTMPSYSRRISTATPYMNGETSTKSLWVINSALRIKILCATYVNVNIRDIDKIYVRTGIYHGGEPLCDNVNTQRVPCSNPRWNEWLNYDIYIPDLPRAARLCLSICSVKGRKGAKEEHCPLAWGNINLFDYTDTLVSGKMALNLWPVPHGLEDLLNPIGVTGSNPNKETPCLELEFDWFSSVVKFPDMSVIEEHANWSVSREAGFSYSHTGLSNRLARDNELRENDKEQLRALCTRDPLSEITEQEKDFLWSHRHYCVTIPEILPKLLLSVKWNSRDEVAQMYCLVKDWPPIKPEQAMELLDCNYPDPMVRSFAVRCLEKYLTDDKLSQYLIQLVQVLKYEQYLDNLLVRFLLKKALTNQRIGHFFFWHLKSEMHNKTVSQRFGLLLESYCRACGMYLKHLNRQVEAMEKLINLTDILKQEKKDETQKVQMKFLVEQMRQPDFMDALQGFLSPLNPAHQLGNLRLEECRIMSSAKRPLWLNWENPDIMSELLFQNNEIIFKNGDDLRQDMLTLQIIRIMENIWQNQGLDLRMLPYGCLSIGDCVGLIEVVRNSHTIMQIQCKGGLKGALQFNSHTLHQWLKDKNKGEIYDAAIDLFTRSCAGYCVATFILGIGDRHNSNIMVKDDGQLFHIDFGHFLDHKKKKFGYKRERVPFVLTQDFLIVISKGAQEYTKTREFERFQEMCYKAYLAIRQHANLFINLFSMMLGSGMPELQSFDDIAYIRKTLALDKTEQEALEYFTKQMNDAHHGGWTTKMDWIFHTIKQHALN
Chain of Phosphatidylinositol 4,5-bisphosphate 3-kinase catalytic subunit alpha isoform (Mus musculus) (P42337 whole entry, canonical isoform): as above

`Cc1ccc2cc3c(OC(=O)COc4ccccc4)nn(C)c3nc2c1`: the inhibition in test [1], in test [2], in test [5] and in test [8] was greater than 40% in each case. Further, the IC50 in test [3] was 47 µM; in test [4] it was greater than 100 µM; in [6], 16 µM; in test [7], 38 µM.

`COc1cccc(-c2nc(-c3cc4cc(OC)ccc4[nH]c3=O)no2)c1`: the inhibition in test [1], in test [2], in test [5] and in test [8] was greater than 40% in each case. The IC50 in [3] worked out at 0.9 µM; in test [4], 3 µM; in test [6] it was 4 µM; in test [7], 0.9 µM.

Turning to `COC(=O)c1ccc(CSc2ncnc3sc(C)c(C)c23)o1`, the inhibition in [1], in test [2], in test [5] and in [8] was greater than 40% throughout. In addition, the IC50 in test [3] is greater than 100 µM; in [4], greater than 100 µM; in test [6], 71 µM; in test [7] it was greater than 100 µM.

In the case of `O=C(CCn1c(=O)oc2cc(Cl)ccc21)Nc1ccccc1`, the inhibition in test [1], in [2], in test [5] and in [8] was greater than 40% in each case. Besides, the 50% inhibitory concentration (IC50) was greater than 100 µM in test [3], 12 µM in [4], 6 µM in [6] and 19 µM in test [7].

`COc1ccccc1-c1nc(-c2cc3cc(C)ccc3[nH]c2=O)no1`: the inhibition in [1], in test [2], in test [5] and in [8] was greater than 40% each time. In addition, the figures for the IC50 in test [6] and in test [7] were 75 µM and greater than 100 µM, respectively.

Regarding `O=c1oc2cc(O)ccc2cc1-c1nc2ccccc2s1`, the inhibition in test [1], in test [2], in [5] and in test [8] was greater than 40% each time. Moreover, the IC50 stood at 4 µM in test [3], 14 µM in test [4], 12 µM in test [6] and 3 µM in test [7].

For the molecule `O=c1cc(N2CCOCC2)oc2c(-c3ccccc3)cccc12` [LY-294002], the inhibition in [1], in [2], in test [5] and in [8] was greater than 40% in each case.

With `O=C1NC(=O)/C(=C/c2ccc3nccnc3c2)S1`, the Ratio in test [9] was 7.5; in test [10] it was greater than 30; in test [11], greater than 30.

For `COc1nc(-c2ccccc2)ccc1-c1noc(-c2ccncc2)n1`, the inhibition in [1], in [2], in test [5] and in [8] was greater than 40% in each case. The IC50 in test [4] was greater than 100 µM; in test [6] it was greater than 100 µM; in test [7], 78 µM.

For orientation: inhibition means the drop in the measured response relative to a control, in per cent. As a reminder, the IC50 is the concentration that gives 50% inhibition.

The record behind these values is ChEMBL document CHEMBL1156056, “Phosphoinositide-3-kinase (PI3K) inhibitors: identification of new scaffolds using virtual screening” (Bioorg Med Chem Lett, 2009).
